Measurements from ChEMBL document CHEMBL5329202, “New aryl-/heteroarylpiperazine derivatives of 1,7-dimethyl-8,9-diphenyl-4-azatricyclo[5.2.1.02,6]dec-8-ene-3,5,10-trione: Synthesis and preliminary studies of biological activities” (Bioorg Med Chem, 2023).

What was measured:
[1] = tested on: HepG2; experiment: Cytotoxicity against human HepG2 cells assessed as cell growth inhibition measured after 72 hrs by MTT assay; format: functional, cell-based; details: HepG2, 72 h
[2] = tested on: MDA-MB-231; experiment: Cytotoxicity against human MDA-MB-231 cells assessed as cell growth inhibition measured after 72 hrs by MTT assay; format: functional, cell-based; details: MDA-MB-231, 72 h
[3] = tested on: K562; experiment: Cytotoxicity against human K562 cells assessed as cell growth inhibition measured after 72 hrs by MTT assay; format: functional, cell-based; details: K562, 72 h
[4] = tested on: A549; experiment: Cytotoxicity against human A549 cells assessed as cell growth inhibition measured after 72 hrs by MTT assay; format: functional, cell-based; details: A549, 72 h
[5] = tested on: HCT-116; experiment: Cytotoxicity against human HCT-116 cells assessed as cell growth inhibition measured after 72 hrs by MTT assay; format: functional, cell-based; details: HCT-116, 72 h
[6] = Cytotoxicity against human HMEC-1 cells assessed as cell growth inhibition measured after 72 hrs by MTT assay; format: toxicity, cell-based
[7] = target: T1, 5-hydroxytryptamine receptor 1A (Rattus norvegicus) (UniProt P19327); experiment: Agonist activity at Sprague-Dawley rat hippocampal membrane 5-HT1A receptor assessed as stimulation of [35S]GTPgammaS binding by measuring maximal efficacy measured after 90 mins by scintillation counter analysis relative to control; format: functional, cell membranes; details: Hippocampus, filed as agonist
T1 sequence (whole entry): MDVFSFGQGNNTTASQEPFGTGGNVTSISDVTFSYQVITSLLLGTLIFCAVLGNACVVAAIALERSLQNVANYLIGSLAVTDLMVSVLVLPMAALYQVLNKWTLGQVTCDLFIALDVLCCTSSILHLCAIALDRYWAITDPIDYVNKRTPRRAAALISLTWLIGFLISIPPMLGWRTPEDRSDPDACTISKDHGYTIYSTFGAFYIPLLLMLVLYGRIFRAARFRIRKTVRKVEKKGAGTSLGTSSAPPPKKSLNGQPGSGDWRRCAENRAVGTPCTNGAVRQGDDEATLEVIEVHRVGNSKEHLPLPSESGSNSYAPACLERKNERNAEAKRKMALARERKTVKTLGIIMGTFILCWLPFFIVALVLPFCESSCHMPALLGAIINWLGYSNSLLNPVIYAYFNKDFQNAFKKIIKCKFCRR

Row | SMILES | IC50 [1] [nM] | IC50 [2] [nM] | IC50 [3] [nM] | IC50 [4] [nM] | IC50 [5] [nM] | IC50 at 72 h [6] [nM] | Emax [7] [%]
1 | COc1cccc2c1C(=O)c1c(O)c3c(c(O)c1C2=O)C[C@@](O)(C(=O)CO)C[C@@H]3O[C@H]1C[C@H](N)[C@H](O)[C@H](C)O1 [DOXORUBICIN] | 290 | 120 | 210 | 240 | 960 | 500 | 
2 | CCCN(CCC)C1CCc2cccc(O)c2C1 (configuration not stated) |  |  |  |  |  |  | 148
